Experimental data taken from patent US9540358B2, “Tricyclic compounds as anticancer agents” (ICAHN SCHOOL OF MEDICINE AT MOUNT SINAI, priority 2011, dated 2017).
pIC50: −log10 of the molar value.

Experiments:
Format in all cases: cell-based
H1650 lung cancer cells = assay: Cell viability assay (MTT, IC50 determination); conditions: MTT; for pIC50: Homo sapiens, NCI-H1650, 48 hours after drug treatment; for IC50 (Cell Viability Data): 48 hours after drug treatment
Procedure: 89(22): p. […] H1650 lung cancer cells were plated at 150,000 cells per well in a 12 well plate. Twenty-four hours after plating, cells were treated as described with increasing concentrations of drug and control. Forty-eight hours after drug treatment, cells were treated with 100 μL of 3-(4,5-Dimethylthiazol-2-yl)-2,5-diphenyltetrazolium bromide (MTT) and incubated for 2 hours at 37 C. The MTT solution was subsequently replaced with 300 μL of n-propyl alcohol and re-aliquoted to a 96 well plates. Spectrophotometric analysis of each solution was performed using a 96 well plate reader at 600 nm in triplicate.

H292 cells = assay: Colony formation (clonogenic) assay, H292; conditions: 8 days
Procedure: (§1) Protocol for clonogenic assay follows Sangodkar et al. J Clin Invest 2012; 122:2637-51.
(§2) Cell culture and staining: For both A549luc and H292 cells, 500 cells were seeded into each well of a 6-well plate and allowed to attach for 24 hours before drug treatment. The following day, cells were treated with either the appropriate dose of drug or an equivalent volume of DMSO (two replicates were treated for each condition). For each condition, depleted media was replaced with fresh media containing the equivalent drug dose four days after initial treatment. Cells were harvested either 7 (A549luc) or 8 (H292) days after initial treatment. Briefly, media was aspirated from each well and the cells were washed twice with ice-cold PBS, then plates were allowed to dry at room temperature for 4 hours. Cells were fixed for one hour in a fixing solution consisting of 10% methanol and 10% glacial acetic acid in distilled water, then stained overnight in 1% (w/v) crystal violet dissolved in methanol. The next day, staining solution was aspirated from the wells and plates were washed gently with distilled water to remove excess stain before colony counting. Colonies were imaged on a ChemiDoc XRS+ (Bio-Rad) and images were exported as 8-bit TIFF files. Colonies were counted using the Colony Counter plugin in ImageJ, with colony size defined as between 4 and 400 square pixels, and minimum circularity set at 0.6. Duplicate wells were averaged to obtain a single value for each condition. Results (number of colonies) for A549luc cells are shown in Table 2 and results (number of colonies) for H292 cells are shown in Table 3: […]

A549luc cells = assay: Colony formation (clonogenic) assay, A549luc; conditions: 7 days
Procedure: as §1, §2

SMILES | pIC50 (H1650 lung cancer cells) | other results
O=S(=O)(NCCCN1c2ccccc2CCc2ccc(Cl)cc21)c1cccc(OC(F)(F)F)c1 [Example 54, N-(3-(3-chloro-10,11-dihydro-5H-dibenzo[b,f]azepin-5-yl)propyl)-3-(trifluoromethoxy)benzenesulfonamide] | ~4.82 | 
O=S(=O)(NCCNC1c2ccccc2CCc2ccccc21)c1ccc(Cl)cc1 [Example 55, 4-Chloro-N-(2-((10,11-dihydro-5H-dibenzo[a,d][7]annulen-5-yl)amino)ethyl)benzenesulfonamide] | ~4.60 | 
O=S(=O)(NCCNC1c2ccccc2CCc2ccccc21)c1ccc(OC(F)(F)F)cc1 [Example 56, 4-Trifluoromethoxy-N-(2-((10,11-dihydro-5H-dibenzo[a,d][7]annulen-5-yl)amino)ethyl)benzenesulfonamide] | ~4.60 | 
O=S(=O)(NCC(O)CN1c2ccccc2CCc2ccc(Cl)cc21)c1ccc(Cl)cc1 (stereo not shown) [Example 57, 4-Chloro-N-(3-(3-chloro-10,11-dihydro-5H-dibenzo[b,f]azepin-5-yl)-2-hydroxypropyl)benzenesulfonamide] | ~5.00 | 
O=S(=O)(NCC(O)CN1c2ccccc2CCc2ccc(Cl)cc21)c1ccc(OC(F)(F)F)cc1 (stereo not shown) [Example 58, 4-Trifluoromethoxy-N-(3-(3-chloro-10,11-dihydro-5H-dibenzo[b,f]azepin-5-yl)-2-hydroxypropyl)benzenesulfonamide] | ~5.30 | 
O=S(=O)(NCC(O)CN1c2ccccc2CCc2ccccc21)c1ccc(Cl)cc1 (stereo not shown) [Example 59, 4-Chloro-N-(3-(10,11-dihydro-5H-dibenzo[b,f]azepin-5-yl)-2-hydroxypropyl)benzenesulfonamide] | ~4.60 | 
O=S(=O)(NCC(O)CN1c2ccccc2CCc2ccccc21)c1ccc(OC(F)(F)F)cc1 (stereo not shown) [Example 60, 4-Trifluoromethoxy-N-(3-(10,11-dihydro-5H-dibenzo[b,f]azepin-5-yl)-2-hydroxypropyl)benzenesulfonamide] | ~4.82 | number of colonies (H292 cells; 5 μM): 107; number of colonies (H292 cells; 7.5 μM): 105; number of colonies (H292 cells; 10 μM): 42; number of colonies (A549luc cells; 5 μM): 126.5; number of colonies (A549luc cells; 7.5 μM): 118.5; number of colonies (A549luc cells; 10 μM): 56
O=S(=O)(NCCCN1c2ccccc2CCc2ccc(Cl)cc21)c1cc(Cl)c(Cl)s1 [Example 61, 4,5-dichloro-N-(3-(3-chloro-10,11-dihydro-5H-dibenzo[b,f]azepin-5-yl)propyl)thiophene-2-sulfonamide] | ~4.70 | 
O=S(=O)(NCCCN1c2ccccc2CCc2ccc(Cl)cc21)c1cc(Cl)sc1Cl [Example 62, 2,5-dichloro-N-(3-(3-chloro-10,11-dihydro-5H-dibenzo[b,f]azepin-5-yl)propyl)thiophene-3-sulfonamide] | ~4.60 | 
O=C(CNS(=O)(=O)c1ccc(OC(F)(F)F)cc1)CN1c2ccccc2CCc2ccccc21 [Example 64, N-(3-(10,11-dihydro-5H-dibenzo[b,f]azepin-5-yl)-2-oxopropyl)-4-(trifluoromethoxy)benzenesulfonamide] | ~4.46 | 
N#CC(CNS(=O)(=O)c1ccc(OC(F)(F)F)cc1)CN1c2ccccc2CCc2ccccc21 (stereo not shown) [Example 65, N-(2-cyano-3-(10,11-dihydro-5H-dibenzo[b,f]azepin-5-yl)propyl)-4-(trifluoromethoxy)benzenesulfonamide] | ~4.82 | 
CC(CNS(=O)(=O)c1ccc(OC(F)(F)F)cc1)CN1c2ccccc2CCc2ccccc21 (stereo not shown) [Example 67, N-(3-(10,11-dihydro-5H-dibenzo[b,f]azepin-5-yl)-2-methylpropyl)-4-(trifluoromethoxy)benzenesulfonamide] | ~4.70 | 
CC(CNS(=O)(=O)c1ccc(Cl)cc1)CN1c2ccccc2CCc2ccccc21 (stereo not shown) [Example 68, 4-Chloro-N-(3-(10,11-dihydro-5H-dibenzo[b,f]azepin-5-yl)-2-methylpropyl)benzenesulfonamide] | ~4.70 | 
O=S(=O)(NCCCN1c2ccccc2CCc2cccc(Cl)c21)c1ccc(OC(F)(F)F)cc1 [Example 69, N-(3-(4-chloro-10,11-dihydro-5H-dibenzo[b,f]azepin-5-yl)propyl)-4-(trifluoromethoxy)benzenesulfonamide] | ~4.70 | 
O=S(=O)(NCCCN1c2ccccc2CCc2cccc(Cl)c21)c1ccc(Cl)cc1 [Example 70, 4-Chloro-N-(3-(4-chloro-10,11-dihydro-5H-dibenzo[b,f]azepin-5-yl)propyl)benzenesulfonamide] | ~4.70 | 
N#Cc1ccc(S(=O)(=O)NCCC=C2c3ccccc3CCc3ccccc32)cc1 [Example 71, N-(3-(10,11-dihydro-5H-dibenzo[a,d][7]annulen-5-ylidene)propyl)-4-cyanobenzenesulfonamide] | 4.60 | 

SMILES | pIC50 (H1650 lung cancer cells) | other results
O=S(=O)(NCCC=C1c2ccccc2CCc2ccccc21)c1ccc(F)cc1 [Example 72, N-(3-(10,11-dihydro-5H-dibenzo[a,d][7]annulen-5-ylidene)propyl)-4-fluorobenzenesulfonamide] | 4.70 | 
O=S(=O)(NC1CCCC(N2c3ccccc3CCc3ccccc32)C1)c1ccc(OC(F)(F)F)cc1 (stereo not shown) [Example 73, N-(3-(10,11-dihydro-5H-dibenzo[b,f]azepin-5-yl)cyclohexyl)-4-(trifluoromethoxy)benzenesulfonamide] |  | number of colonies (H292 cells; 5 μM): 40.5; number of colonies (H292 cells; 7.5 μM): 16.5; number of colonies (H292 cells; 10 μM): 7; number of colonies (A549luc cells; 5 μM): 2; number of colonies (A549luc cells; 7.5 μM): 0; number of colonies (A549luc cells; 10 μM): 0
O=S(=O)(NC[C@@H](O)CN1c2ccccc2CCc2ccccc21)c1ccc(OC(F)(F)F)cc1 [Example 74, (S)—N-(3-(10,11-dihydro-5H-dibenzo[b,f]azepin-5-yl)-2-hydroxypropyl)-4-(trifluoromethoxy)benzenesulfonamide] | ~4.82 | number of colonies (H292 cells; 5 μM): 85.5; number of colonies (H292 cells; 7.5 μM): 65.5; number of colonies (H292 cells; 10 μM): 46.5; number of colonies (A549luc cells; 5 μM): 135.5; number of colonies (A549luc cells; 7.5 μM): 118.5; number of colonies (A549luc cells; 10 μM): 96
O=S(=O)(NC1CCC(N2c3ccccc3CCc3ccccc32)C1)c1ccc(OC(F)(F)F)cc1 (stereo not shown) [Example 76, N-(3-(10,11-dihydro-5H-dibenzo[b,f]azepin-5-yl)cyclopentyl)-4-(trifluoromethoxy)benzenesulfonamide] | 4.70 | 
O=S(=O)(NC1CCCC(=C2c3ccccc3CCc3ccccc32)C1)c1ccc(OC(F)(F)F)cc1 (stereo not shown) [Example 77, N-(3-(10,11-dihydro-5H-dibenzo[a,d][7]annulen-5-ylidene)cyclohexyl)-4-(trifluoromethoxy)benzenesulfonamide] | 4.82 | 
O=S(=O)(NC1CCCC(=C2c3ccccc3CCc3ccccc32)C1)c1ccc(Cl)cc1 (stereo not shown) [Example 78, N-(3-(10,11-dihydro-5H-dibenzo[a,d][7]annulen-5-ylidene)cyclohexyl)-4-chlorobenzenesulfonamide] | 4.82 | 
O=S(=O)(NC1CCC(=C2c3ccccc3CCc3ccccc32)CC1)c1ccc(OC(F)(F)F)cc1 (stereo not shown) [Example 79, N-(4-(10,11-dihydro-5H-dibenzo[a,d][7]annulen-5-ylidene)cyclohexyl)-4-(trifluoromethoxy)benzenesulfonamide] | ~4.70 | 
O=S(=O)(NC1CCC(=C2c3ccccc3CCc3ccccc32)CC1)c1ccc(Cl)cc1 (stereo not shown) [Example 80, N-(4-(10,11-dihydro-5H-dibenzo[a,d][7]annulen-5-ylidene)cyclohexyl)-4-chlorobenzenesulfonamide] | ~4.70 | 
O=S(=O)(NCCCN1c2ccccc2CCc2ccccc21)c1cnc(Cl)c(Br)c1 [Example 81, 5-bromo-6-chloro-N-(3-(10,11-dihydro-5H-dibenzo[V]azepin-5-yl)propyl)pyridine-3-sulfonamide] |  | IC50 (Cell Viability Data) (H1650 lung cancer cells): INACTIVE
CC(=O)Nc1nc(C)c(S(=O)(=O)NCCCN2c3ccccc3CCc3ccccc32)s1 [Example 82, N-(5-(N-(3-(10,11-dihydro-5H-dibenzo[b,f]azepin-5-yl)propyl)sulfamoyl)-4-methylthiazol-2-yl)acetamide] |  | IC50 (Cell Viability Data) (H1650 lung cancer cells): INACTIVE
COC(=O)NCCN1c2ccccc2Sc2ccc(Cl)cc21 [Example 83] |  | IC50 (Cell Viability Data) (H1650 lung cancer cells): INACTIVE
O=S(=O)(NCC(O)CN1c2ccccc2Sc2ccccc21)c1ccc(OC(F)(F)F)cc1 (stereo not shown) [Example 84] | ~4.60 | 
O=S(=O)(NCC(O)CN1c2ccccc2Sc2ccccc21)c1ccc(Cl)cc1 (stereo not shown) [Example 85] | ~4.82 | 
O=S(=O)(NCCCN1c2ccccc2CCc2ccc(Cl)cc21)c1ccccc1OC(F)(F)F [Example 86] |  | IC50 (Cell Viability Data) (H1650 lung cancer cells): INACTIVE
CS(=O)(=O)Nc1ccc2c(c1)N(CCCNS(=O)(=O)c1ccc(OC(F)(F)F)cc1)c1ccccc1CC2 [Example 87] | ~4.82 | 
CC(=O)Nc1ccc(S(=O)(=O)NCCCN2c3ccccc3CCc3ccc(Cl)cc32)cc1 [Example 88] | ~4.70 | 
